Our source for the IC50 values is patent US20160176867A1, “MODIFIED BET-PROTEIN-INHIBITING DIHYDROQUINOXALINONES AND DIHYDROPYRIDOPYRAZINONES” (BAYER PHARMA AKTIENGESELLSCHAFT, priority 2013, published 2016).

What is called IC50 is the midpoint of a concentration-inhibition curve. A high value points to weaker potency in that assay.

The target in experiment [1] is T1, BRD4 bromo domain 2 [BRD4(2)] (Homo sapiens, UniProt O60885).
T1 construct: N-terminally His6-tagged BRD4(2) (amino acids 357-445); made in house; host or cells: E. coli
As to the kind of experiment: BRD4/acetylated peptide H4 binding assay (TR-FRET), BRD4 bromo domain 2. The note with it: inhibition of BRD4(2)/Ac-H4 peptide interaction. In a few lines: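 Binding of His6-BRD4(2) (aa 357-445, 100 nM final) to biotinylated tetra-acetylated H4 peptide read by TR-FRET (665/620 nm). Compound preincubated 10 min at 22 °C, then 1 h at 22 °C plus ≥3 h at 4 °C. Eleven concentrations (0.1 nM–20 μM) in duplicate; IC50 by 4-parameter fit.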

The test system of experiment [2] is MOLM-13 cells. As to the kind of experiment: Cell proliferation assay (alamarBlue), MOLM-13. It is filed as cell-based. As to conditions: Homo sapiens; MOLM-13 (acute myeloid leukaemia), 96 hours. The procedure: (§1) In accordance with the invention, the ability of the substances to inhibit cell proliferation was determined. Cell viability was determined by means of the alamarBlue® reagent (Invitrogen) in a Victor X3 Multilabel Reader (Perkin Elmer). The excitation wavelength was 530 nm and the emission wavelength […].
The MOLM-13 cells (DSMZ, ACC 554) were sown at a concentration of 4000 cells/well in 100 μl of growth medium (RPMI1640, 10% FCS) on 96-well microtitre plates.
(§2) After overnight incubation at 37° C., the fluorescence values were determined (CI values). Then the plates were treated with various substance dilutions (1E-5 M, 3E-6 M, 1E-6 M, 3E-7 M, 1E-7 M, 3E-8 M, 1E-8 M) and incubated at 37° C. over 96 hours (MOLM-13, B16F10, CHL-1 cells) or 120 hours (MOLP-8 cells). Subsequently, the fluorescence values were determined (CO values). For the data analysis, the CI values were subtracted from the CO values and the results were compared between cells which had been treated with various dilutions of the substance or only with buffer solution. The IC50 values (substance concentration needed for 50% inhibition of cell proliferation) were calculated therefrom.
Background: Alamar Blue is a resazurin reagent that responds to reducing activity.

In experiment [3] the test system is MOLP-8 cells. As to the kind of experiment: Cell proliferation assay (alamarBlue), MOLP-8. It is filed as cell-based. The note with it: Homo sapiens; MOLP-8 (multiple myeloma), 120 hours. On the procedure: as §1
The MOLP-8 cells (DSMZ, ACC 569) were sown at a concentration of 4000 cells/well in 100 μl of growth medium (RPMI1640, 20% FCS) on 96-well microtitre plates.
as §2

Experiment [4] concerns B16F10 cells. The experiment can be described thus: Cell proliferation assay (alamarBlue), B16F10. In kind it is cell-based. As to conditions: Mus musculus, B16-F10; B16F10 (melanoma, BRAF wild-type), 96 hours. The procedure:
as §1
The B16F10 cells (ATCC, CRL-6475) were sown at a concentration of 300-500 cells/well in 100 μl of growth medium (DMEM with phenol red, 10% FCS) on 96-well microtitre plates.
as §2

Each structure is given as a SMILES string.

Turning to `CC(C)N1c2nc(Nc3cccc(S(=O)(=O)N[C@H]4CC[C@H](N5CCN(CC6CC6)CC5)CC4)c3)ccc2N(C)C(=O)[C@H]1C` [Example 34, N-{trans-4-[4-(cyclopropylmethyl)piperazin-1-yl]cyclohexyl}-3-{[(3R)-4-isopropyl-1,3-dimethyl-2-oxo-1,2,3,4-tetrahydropyrido[2,3-b]pyrazin-6-yl]amino}-benzenesulphonamide], the IC50 in experiment [1] stood at 125 nM; in experiment [2], 55 nM; in experiment [3], 20 nM; in experiment [4], 202 nM.

Regarding `C[C@@H]1C(=O)N(C)c2ccc(Nc3cccc(S(=O)(=O)N[C@H]4CC[C@H](N5CCN(CC6CC6)CC5)CC4)c3)nc2N1C1CCOCC1` [Example 35, N-{trans-4-[4-(cyclopropylmethyl)-piperazin-1-yl]cyclohexyl}-3-{[(3R)-1,3-dimethyl-2-oxo-4-(tetrahydro-2H-pyran-4-yl)-1,2,3,4-tetrahydropyrido[2,3-b]pyrazin-6-yl]amino}-benzenesulphonamide], the IC50 in experiment [1] turned out to be 69 nM; in experiment [2], 140 nM; in experiment [3] it was 23 nM; in experiment [4], 146 nM.

For `C[C@@H]1C(=O)N(C)c2ccc(Nc3cccc(S(=O)(=O)N4CCN(CC(F)(F)F)CC4)c3)nc2N1C1CCOCC1` [Example 37, (3R)-1,3-dimethyl-4-(tetrahydro-2H-pyran-4-yl)-6-[(3-{[4-(2,2,2-trifluoroethyl)piperazin-1-yl]sulphonyl}phenyl)-amino]-3,4-dihydropyrido-[2,3-b]pyrazin-2(1H)-one], the IC50 in experiment [1] came out at 16 nM; in experiment [2], 74 nM; in experiment [3], 65 nM; in experiment [4] it was 93 nM.

`C[C@@H]1C(=O)N(C)c2ccc(Nc3cccc(S(=O)(=O)N[C@H]4CC[C@H](N5CCN(CC6CC6)CC5)CC4)c3)nc2N1Cc1ccccc1` [Example 38, 3-{[(3R)-4-benzyl-1,3-dimethyl-2-oxo-1,2,3,4-tetrahydropyrido[2,3-b]pyrazin-6-yl]amino}-N-{trans-4-[4-(cyclopropyl-methyl)piperazin-1-yl]cyclohexyl}-benzenesulphonamide]: the IC50 in experiment [1] was 48 nM; in experiment [2], 20 nM; in experiment [3], 12 nM; in experiment [4] it was 190 nM.

Consider `CNS(=O)(=O)c1cccc(Nc2ccc3c(n2)N(C2CCOCC2)[C@H](C)C(=O)N3C)c1` [Example 39, 3-{[(3R)-1,3-dimethyl-2-oxo-4-(tetrahydro-2H-pyran-4-yl)-1,2,3,4-tetrahydropyrido[2,3-b]pyrazin-6-yl]amino}-N-methylbenzenesulphon-amide], for which the IC50 in experiment [1] is 135 nM; in experiment [2], 90 nM; in experiment [3] it was 91 nM; in experiment [4], 149 nM.

On to `COc1ccc(S(=O)(=O)N2CCN(C)CC2)cc1Nc1ccc2c(n1)N(C1CCOCC1)[C@H](C)C(=O)N2C` [Example 40, (3R)-6-({2-methoxy-5-[(4-methylpiperazin-1-yl)sulphonyl]phenyl}-amino)-1,3-dimethyl-4-(tetrahydro-2H-pyran-4-yl)-3,4-dihydropyrido[2,3-b]pyrazin-2(1H)-one], for which the IC50 in experiment [1] worked out at 52 nM; in experiment [2], 98 nM; in experiment [3] it was 73 nM; in experiment [4], 314 nM.

For the compound `C[C@@H]1C(=O)N(C)c2ccc(Nc3cccc(S(=O)(=O)N(C)C)c3)nc2N1C1CCN(C)CC1` [Example 41, 3-{[(3R)-1,3-dimethyl-4-(1-methylpiperidin-4-yl)-2-oxo-1,2,3,4-tetrahydropyrido[2,3-b]pyrazin-6-yl]amino}-N,N-dimethylbenzene-sulphonamide], the IC50 in experiment [1] amounted to 43 nM; in experiment [2] it was 22 nM; in experiment [3], 17 nM; in experiment [4] it was 52 nM.

On to `CC(C)N1c2nc(Nc3cccc(S(=O)(=O)N4CCN(C)CC4)c3)ccc2N(C)C(=O)[C@H]1C` [Example 43, (3R)-4-isopropyl-1,3-dimethyl-6-({3-[(4-methylpiperazin-1-yl)sulphonyl]phenyl}-amino)-3,4-dihydropyrido-[2,3-b]pyrazin-2(1H)-one], for which the IC50 amounted to 96 nM in experiment [1], 196 nM in experiment [2], 144 nM in experiment [3] and 537 nM in experiment [4].

For `C[C@@H]1C(=O)N(C)c2ccc(Nc3cccc(S(=O)(=O)NCC4CCN(C)CC4)c3)nc2N1C1CCOCC1` [Example 44, 3-{[(3R)-1,3-dimethyl-2-oxo-4-(tetrahydro-2H-pyran-4-yl)-1,2,3,4-tetrahydropyrido[2,3-b]pyrazin-6-yl]amino}-N-[(1-methylpiperidin-4-yl)methyl]benzene-sulphonamide], the IC50 came to 88 nM in experiment [1], 253 nM in experiment [2], 335 nM in experiment [3] and 944 nM in experiment [4].

`CC(C)CN1c2nc(Nc3cccc(S(=O)(=O)N[C@H]4CC[C@H](N5CCN(CC6CC6)CC5)CC4)c3)ccc2N(C)C(=O)[C@H]1C` [Example 45, N-{trans-4-[4-(cyclopropylmethyl)-piperazin-1-yl]cyclohexyl}-3-{[(3R)-4-isobulyl-1,3-dimethyl-2-oxo-1,2,3,4-tetrahydropyrido[2,3-b]pyrazin-6-yl]amino}-benzenesulphonamide]: the IC50 in experiment [1] stood at 148 nM; in experiment [2], 126 nM; in experiment [3] it was 67 nM; in experiment [4] it was 393 nM.

For `COc1ccc(S(=O)(=O)N2CCN(C)CC2)cc1Nc1ccc2c(n1)N(C1CCN(C)CC1)[C@H](C)C(=O)N2C` [Example 46, (3R)-6-({2-methoxy-5-[(4-methylpiperazin-1-yl)sulphonyl]phenyl}-amino)-1,3-dimethyl-4-(1-methylpiperidin-4-yl)-3,4-dihydropyrido[2,3-b]pyrazin-2(1H)-one], the IC50 in experiment [1] worked out at 69 nM; in experiment [2], 45 nM; in experiment [3], 33 nM; in experiment [4], 135 nM.

Consider `C[C@@H]1C(=O)N(C)c2ccc(Nc3cccc(S(=O)(=O)N4CCOCC4)c3)nc2N1C1CCN(C)CC1` [Example 47, (3R)-1,3-dimethyl-4-(1-methylpiperidin-4-yl)-6-{[3-(morpholin-4-ylsulphonyl)phenyl]-amino}-3-4-dihydropyrido-[2,3-b]pyrazin-2(1H)-one], for which the IC50 in experiment [1] turned out to be 59 nM; in experiment [2], 51 nM; in experiment [3], 25 nM; in experiment [4], 188 nM.

Take `C[C@@H]1C(=O)N(C)c2ccc(Nc3cccc(S(=O)(=O)NC4CCN(C)CC4)c3)nc2N1C1CCCCCC1` [Example 48, 3-{[(3R)-4-cycloheptyl-1,3-dimethyl-2-oxo-1,2,3,4-tetrahydropyrido-[2,3-b]pyrazin-6-yl]amino}-N-(1-methylpiperidin-4-yl)benzenesulphonamide]: the IC50 in experiment [1] stood at 101 nM; in experiment [2], 240 nM; in experiment [3] it was 197 nM; in experiment [4], 586 nM.

For the compound `C[C@@H]1C(=O)N(C)c2ccc(Nc3cccc(S(=O)(=O)N4CCN(C)CC4)c3)nc2N1C1CCN(C)CC1` [Example 50, (3R)-1,3-dimethyl-6-({3-[(4-methylpiperazin-1-yl)sulphonyl]phenyl}-amino)-4-(1-methyl-piperidin-4-yl)-3,4-dihydropyrido[2,3-b]pyrazin-2(1H)-one], the IC50 in experiment [1] amounted to 121 nM; in experiment [2] it was 213 nM; in experiment [3], 140 nM; in experiment [4] it was 727 nM.

For the compound `CC(C)N1c2nc(Nc3cccc(S(=O)(=O)NC4CCN(C)CC4)c3)ccc2N(C)C(=O)[C@H]1C` [Example 51, 3-{[(3R)-4-isopropyl-1,3-dimethyl-2-oxo-1,2,3,4-tetrahydropyrido[2,3-b]pyrazin-6-yl]amino}-N-(1-methylpiperidin-4-yl)benzenesulphonamide], the IC50 in experiment [1] is 99 nM; in experiment [2], 97 nM; in experiment [3], 58 nM; in experiment [4], 423 nM.

On to `C[C@@H]1C(=O)N(C)c2ccc(Nc3cccc(S(=O)(=O)N[C@H]4CC[C@H](N5CCN(CC6CC6)CC5)CC4)c3)nc2N1C1CCN(C(=O)OC(C)(C)C)CC1` [Example 52, tert-butyl 4-[(3R)-6-{[3-({trans-4-[4-(cyclo-propylmethyl)piperazin-1-yl]cyclohexyl}-sulphamoyl)phenyl]amino}-1,3-dimethyl-2-oxo-2,3-dihydropyrido[2,3-b]pyrazin-4(1H)-yl]piperidine-1-carboxylate], for which the half-maximal inhibitory concentration (IC50) worked out at 86 nM in experiment [1], 180 nM in experiment [2], 133 nM in experiment [3] and 569 nM in experiment [4].
